Assay [1] has as its system AMPK. Put plainly: AMPK activation assay (western blot phospho-AMPK Thr172) in C2C12. The format is cell-based, mouse. The note with it: C2C12 cells, 30 min treatment. The essentials:
(§1)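 Mouse C2C12, mouse 3T3-L1 and human Hep G2 cells in high-glucose DMEM/10% FBS were treated with compounds for 30 min, 24 h after plating. Lysates were western-blotted for phospho-AMPK (Thr172) and total AMPK, ECL-detected, and bands quantified by densitometry.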

Assay [2] concerns AMPK. In words: AMPK activation assay (western blot phospho-AMPK Thr172) in Hep G2. The format is cell-based, human. The conditions noted are these: Hep G2 cells, 30 min treatment. The essentials: as §1
The subject of assay [3] is AMPK. Put plainly: AMPK activation assay (western blot phospho-AMPK Thr172) in 3T3-L1. The format is cell-based, mouse. The note with it: 3T3-L1 cells, 30 min treatment. In a few lines: as §1

Turning to `Nc1nc(I)nc2nc[nH]c12` [Example 2-iodoadenine, 2-iodoadenine], the “AMPK activation (% to control) C2C12” value with AMPK [1] (1 microM) is 114 % to control; in the assay on AMPK [1] (10 microM), 143 % to control; with AMPK [1] (100 microM), 214 % to control; with AMPK [1] (200 microM) it was 311 % to control. Further, the “AMPK activation (% to control) Hep G2” value is listed as 115 % to control with AMPK [2] (1 microM), 151 % to control with AMPK [2] (10 microM), 227 % to control with AMPK [2] (100 microM) and 341 % to control with AMPK [2] (200 microM). Moreover, the “AMPK activation (% to control) 3T3-L1” value in the assay with AMPK [3] (1 microM) is 116 % to control; with AMPK [3] (10 microM) it was 179 % to control; with AMPK [3] (100 microM), 237 % to control; in the assay with AMPK [3] (200 microM), 358 % to control.

Take `Oc1nc(S)nc2nc[nH]c12` [Example 2-mercapto-6-hydroxypurine, 2-mercapto-6-hydroxypurine]: the “AMPK activation (% to control) C2C12” value in the assay on AMPK [1] (1 microM) was 109 % to control; in the assay with AMPK [1] (10 microM) it was 148 % to control; with AMPK [1] (100 microM), 251 % to control; with AMPK [1] (200 microM), 333 % to control. The “AMPK activation (% to control) Hep G2” value was 113 % to control in the assay on AMPK [2] (1 microM), 132 % to control with AMPK [2] (10 microM), 209 % to control with AMPK [2] (100 microM) and 315 % to control with AMPK [2] (200 microM). In addition, the “AMPK activation (% to control) 3T3-L1” value in the assay with AMPK [3] (1 microM) is listed as 115 % to control; with AMPK [3] (10 microM), 147 % to control; in the assay with AMPK [3] (100 microM) it was 220 % to control; with AMPK [3] (200 microM), 308 % to control.

For `Nc1nc(S)nc2nc[nH]c12` [Example 2-mercaptoadenine, 2-mercaptoadenine], the “AMPK activation (% to control) C2C12” value was 105 % to control in the assay on AMPK [1] (1 microM), 115 % to control in the assay on AMPK [1] (10 microM), 221 % to control in the assay with AMPK [1] (100 microM) and 289 % to control in the assay with AMPK [1] (200 microM). Moreover, the “AMPK activation (% to control) Hep G2” value is 118 % to control with AMPK [2] (1 microM), 119 % to control in the assay with AMPK [2] (10 microM), 195 % to control in the assay on AMPK [2] (100 microM) and 308 % to control in the assay on AMPK [2] (200 microM). Further, the “AMPK activation (% to control) 3T3-L1” value in the assay on AMPK [3] (1 microM) is reported as 112 % to control; in the assay on AMPK [3] (10 microM) it was 128 % to control; in the assay on AMPK [3] (100 microM), 204 % to control; in the assay with AMPK [3] (200 microM), 297 % to control.

`Cc1nc(O)c2[nH]cnc2n1` [Example 2-methyl-6-hydroxypurine, 2-methyl-6-hydroxypurine]: the “AMPK activation (% to control) C2C12” value in the assay on AMPK [1] (1 microM) is recorded as 109 % to control; in the assay with AMPK [1] (10 microM) it was 139 % to control; with AMPK [1] (100 microM) it was 241 % to control; in the assay on AMPK [1] (200 microM), 305 % to control. For the same compound, the “AMPK activation (% to control) Hep G2” value with AMPK [2] (1 microM) is reported as 116 % to control; with AMPK [2] (10 microM) it was 162 % to control; in the assay with AMPK [2] (100 microM), 219 % to control; in the assay with AMPK [2] (200 microM), 347 % to control. Moreover, the “AMPK activation (% to control) 3T3-L1” value with AMPK [3] (1 microM) is recorded as 112 % to control; with AMPK [3] (10 microM) it was 144 % to control; in the assay with AMPK [3] (100 microM), 228 % to control; with AMPK [3] (200 microM) it was 338 % to control.

As to `O=c1[nH]cc(F)c(=O)[nH]1` [Example 5-fluorouracil, 5-fluorouracil], the “AMPK activation (% to control) C2C12” value with AMPK [1] (1 microM) is given as 105 % to control; in the assay with AMPK [1] (10 microM), 105 % to control; in the assay on AMPK [1] (100 microM), 224 % to control; in the assay with AMPK [1] (200 microM), 318 % to control. The “AMPK activation (% to control) Hep G2” value is listed as 110 % to control with AMPK [2] (1 microM), 134 % to control with AMPK [2] (10 microM), 237 % to control in the assay on AMPK [2] (100 microM) and 319 % to control in the assay on AMPK [2] (200 microM). Besides, the “AMPK activation (% to control) 3T3-L1” value in the assay with AMPK [3] (1 microM) was 108 % to control; in the assay on AMPK [3] (10 microM), 113 % to control; in the assay on AMPK [3] (100 microM), 248 % to control; in the assay on AMPK [3] (200 microM) it was 322 % to control.

Take `Cc1c[nH]c(=O)nc1N` [Example 5-methylcytosine, 5-methylcytosine]: the “AMPK activation (% to control) C2C12” value in the assay with AMPK [1] (1 microM) is reported as 116 % to control; in the assay on AMPK [1] (10 microM), 157 % to control; in the assay with AMPK [1] (100 microM), 241 % to control; in the assay with AMPK [1] (200 microM), 338 % to control. For the same compound, the “AMPK activation (% to control) Hep G2” value is listed as 107 % to control in the assay on AMPK [2] (1 microM), 114 % to control in the assay with AMPK [2] (10 microM), 218 % to control in the assay on AMPK [2] (100 microM) and 317 % to control with AMPK [2] (200 microM). For the same compound, the “AMPK activation (% to control) 3T3-L1” value is 115 % to control in the assay on AMPK [3] (1 microM), 161 % to control in the assay with AMPK [3] (10 microM), 253 % to control with AMPK [3] (100 microM) and 356 % to control in the assay on AMPK [3] (200 microM).

`O=c1cn[nH]c(=O)[nH]1` [Example 6-azauracil, 6-azauracil]: the “AMPK activation (% to control) C2C12” value in the assay on AMPK [1] (1 microM) was 109 % to control; with AMPK [1] (10 microM) it was 109 % to control; in the assay on AMPK [1] (100 microM), 197 % to control; with AMPK [1] (200 microM), 284 % to control. Besides, the “AMPK activation (% to control) Hep G2” value in the assay with AMPK [2] (1 microM) is 108 % to control; in the assay on AMPK [2] (10 microM), 124 % to control; in the assay with AMPK [2] (100 microM) it was 199 % to control; in the assay with AMPK [2] (200 microM) it was 273 % to control. The “AMPK activation (% to control) 3T3-L1” value in the assay on AMPK [3] (1 microM) is on record as 109 % to control; in the assay on AMPK [3] (10 microM), 115 % to control; in the assay on AMPK [3] (100 microM), 185 % to control; in the assay with AMPK [3] (200 microM) it was 288 % to control.

Regarding `c1nc(NC2CCCCC2)c2[nH]cnc2n1` [Example 6-cyclohexylaminopurine, 6-cyclohexylaminopurine], the “AMPK activation (% to control) C2C12” value with AMPK [1] (1 microM) is 107 % to control; in the assay on AMPK [1] (10 microM), 110 % to control; in the assay with AMPK [1] (100 microM), 248 % to control; in the assay with AMPK [1] (200 microM), 322 % to control. Further, the “AMPK activation (% to control) Hep G2” value in the assay with AMPK [2] (1 microM) is reported as 111 % to control; with AMPK [2] (10 microM), 132 % to control; in the assay with AMPK [2] (100 microM) it was 261 % to control; in the assay with AMPK [2] (200 microM), 354 % to control. The “AMPK activation (% to control) 3T3-L1” value in the assay on AMPK [3] (1 microM) is 107 % to control; with AMPK [3] (10 microM), 152 % to control; in the assay on AMPK [3] (100 microM) it was 269 % to control; in the assay on AMPK [3] (200 microM), 333 % to control.

Turning to `CCCCCCNc1ncnc2nc[nH]c12` [Example 6-hexylaminopurine, 6-hexylaminopurine], the “AMPK activation (% to control) C2C12” value was 109 % to control in the assay on AMPK [1] (1 microM), 123 % to control in the assay with AMPK [1] (10 microM), 248 % to control with AMPK [1] (100 microM) and 359 % to control in the assay with AMPK [1] (200 microM). Also, the “AMPK activation (% to control) Hep G2” value in the assay with AMPK [2] (1 microM) is reported as 112 % to control; with AMPK [2] (10 microM), 148 % to control; with AMPK [2] (100 microM) it was 280 % to control; in the assay with AMPK [2] (200 microM), 317 % to control. Moreover, the “AMPK activation (% to control) 3T3-L1” value with AMPK [3] (1 microM) is reported as 108 % to control; in the assay on AMPK [3] (10 microM), 111 % to control; in the assay on AMPK [3] (100 microM) it was 170 % to control; with AMPK [3] (200 microM) it was 265 % to control.

Take `Sc1ncnc2nc[nH]c12` [Example 6-mercaptopurine, 6-mercaptopurine]: the “AMPK activation (% to control) C2C12” value is 105 % to control in the assay on AMPK [1] (1 microM), 119 % to control with AMPK [1] (10 microM), 198 % to control in the assay on AMPK [1] (100 microM) and 289 % to control with AMPK [1] (200 microM). For the same compound, the “AMPK activation (% to control) Hep G2” value is reported as 114 % to control with AMPK [2] (1 microM), 122 % to control in the assay with AMPK [2] (10 microM), 204 % to control in the assay on AMPK [2] (100 microM) and 279 % to control with AMPK [2] (200 microM). The “AMPK activation (% to control) 3T3-L1” value is reported as 114 % to control with AMPK [3] (1 microM), 128 % to control in the assay with AMPK [3] (10 microM), 176 % to control in the assay on AMPK [3] (100 microM) and 218 % to control in the assay on AMPK [3] (200 microM).

The values above are taken from US9938279B2, “Method for treating disease or condition susceptible to amelioration by AMPK activators and compounds of formula which are useful to activate AMP-activated protein kinase (AMPK)” (ENERGENESIS BIOMEDICAL CO., LTD, priority 2013, dated 2018).
